Measurements taken from patent US11091479B2, “Triazolopyridin-3-ones or their salts and pharmaceutical compositions comprising the same” (YUHAN CORPORATION, priority 2018, dated 2021).
Structures can show the parent of a compound that is named as a salt.

How the values were obtained:
Type in all cases: biochemical
[1] = target: T1, recombinant human MAO-A (monoamine oxidase-A) (Homo sapiens, UniProt P21397); assay: Activity on recombinant human MAO-A, method similar to VAP-1 assay, 0.5 mM tyramine substrate; settings: read-out: Inhibitory Activity (IC50, nM) MAO-A
T1 construct: purchased Sigma-Aldrich
T1 sequence (P21397 1-527): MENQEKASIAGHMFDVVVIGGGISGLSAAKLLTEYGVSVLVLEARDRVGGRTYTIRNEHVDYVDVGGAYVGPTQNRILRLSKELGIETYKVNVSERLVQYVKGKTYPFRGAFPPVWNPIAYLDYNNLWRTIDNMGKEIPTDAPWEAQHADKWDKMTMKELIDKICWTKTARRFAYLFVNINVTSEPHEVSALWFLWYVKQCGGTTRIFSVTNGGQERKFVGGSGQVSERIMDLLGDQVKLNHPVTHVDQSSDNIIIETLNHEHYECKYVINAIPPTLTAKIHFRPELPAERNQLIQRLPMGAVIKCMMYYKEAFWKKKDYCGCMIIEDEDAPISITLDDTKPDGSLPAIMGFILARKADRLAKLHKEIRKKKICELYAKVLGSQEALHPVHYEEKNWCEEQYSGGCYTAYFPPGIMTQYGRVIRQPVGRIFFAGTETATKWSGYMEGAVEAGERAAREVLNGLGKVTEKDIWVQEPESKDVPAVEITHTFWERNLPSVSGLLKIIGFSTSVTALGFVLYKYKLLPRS
In short: (§1)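 Amplex Red/HRP-coupled H2O2 fluorescence assay run as for VAP-1: enzyme in 50 mM sodium phosphate pH 7.4 preincubated with compound 30 min at 37 °C, then substrate (putrescine for DAO, benzylamine for MAO-B, tyramine for MAO-A) added with 200 uM Amplex Red, 1 U/mL HRP. Signal rate over 1-2 h; IC50 from 4-parameter logistic fit.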

[2] = target: T2, recombinant human MAO-B (monoamine oxidase-B) (Homo sapiens, UniProt P27338); assay: Activity on recombinant human MAO-B, method similar to VAP-1 assay, 1 mM benzylamine substrate; settings: read-out: Inhibitory Activity (IC50, nM) MAO-B
T2 construct: purchased Sigma-Aldrich
T2 sequence (P27338 1-520): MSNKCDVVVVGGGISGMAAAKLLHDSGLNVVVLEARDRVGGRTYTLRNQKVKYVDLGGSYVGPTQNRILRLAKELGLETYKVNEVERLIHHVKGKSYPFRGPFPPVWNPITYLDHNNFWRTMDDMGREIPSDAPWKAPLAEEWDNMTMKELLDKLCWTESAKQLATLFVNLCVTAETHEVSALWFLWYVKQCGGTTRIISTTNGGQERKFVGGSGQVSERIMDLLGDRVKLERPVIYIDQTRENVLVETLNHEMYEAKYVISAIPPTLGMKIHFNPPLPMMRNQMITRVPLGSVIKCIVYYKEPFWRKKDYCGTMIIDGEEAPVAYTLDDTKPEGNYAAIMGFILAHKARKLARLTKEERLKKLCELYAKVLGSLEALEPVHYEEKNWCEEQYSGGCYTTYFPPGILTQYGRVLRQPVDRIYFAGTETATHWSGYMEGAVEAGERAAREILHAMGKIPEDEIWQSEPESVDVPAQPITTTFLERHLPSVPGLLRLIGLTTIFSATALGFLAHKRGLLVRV
In short: as §1

recombinant human VAP-1 = target: T3, recombinant human VAP-1 (Homo sapiens, UniProt Q16853); assay: Activity on recombinant human VAP-1, HRP-coupled Amplex Red hydrogen peroxide assay, benzylamine substrate; settings: 30 min incubation at 37° C., 1 mM benzylamine, read-out: Inhibitory Activity (IC50, nM) human VAP-1
T3 construct: purchased R&D systems
T3 sequence (Q16853 1-763): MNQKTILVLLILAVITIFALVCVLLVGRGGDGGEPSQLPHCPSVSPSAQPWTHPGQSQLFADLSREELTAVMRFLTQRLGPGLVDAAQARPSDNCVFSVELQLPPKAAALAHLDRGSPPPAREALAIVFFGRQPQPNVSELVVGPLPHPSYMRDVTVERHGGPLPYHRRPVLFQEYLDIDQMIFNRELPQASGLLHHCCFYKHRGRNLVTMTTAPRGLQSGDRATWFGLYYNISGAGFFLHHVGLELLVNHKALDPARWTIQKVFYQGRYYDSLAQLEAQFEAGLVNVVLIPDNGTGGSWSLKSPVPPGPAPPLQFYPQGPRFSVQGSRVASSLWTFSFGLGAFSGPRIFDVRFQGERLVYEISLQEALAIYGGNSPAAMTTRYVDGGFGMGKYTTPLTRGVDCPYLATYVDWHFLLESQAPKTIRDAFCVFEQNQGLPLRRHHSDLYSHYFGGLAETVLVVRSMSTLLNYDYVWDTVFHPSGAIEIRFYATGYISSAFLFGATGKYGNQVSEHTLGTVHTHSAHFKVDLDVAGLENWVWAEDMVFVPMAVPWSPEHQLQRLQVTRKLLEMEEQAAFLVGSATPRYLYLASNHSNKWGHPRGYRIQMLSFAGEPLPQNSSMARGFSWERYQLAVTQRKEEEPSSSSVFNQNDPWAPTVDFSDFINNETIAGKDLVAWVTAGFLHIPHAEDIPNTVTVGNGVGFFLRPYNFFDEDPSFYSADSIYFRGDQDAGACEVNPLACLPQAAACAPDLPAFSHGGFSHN
In short: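 Recombinant human VAP-1 in 50 mM sodium phosphate pH 7.4 preincubated with compound for 30 min at 37 °C, then 1 mM benzylamine, 200 uM Amplex Red and 1 U/mL HRP added. Resorufin fluorescence (ex 544/em 590 nm) followed over 1-2 h; % signal-rate decrease vs DMSO control, 8-point 4-parameter fit for IC50.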

[3] = target: T4, recombinant human DAO (diamine oxidase) (Homo sapiens, UniProt P19801); assay: Activity on recombinant human DAO, method similar to VAP-1 assay, 1 mM putrescine substrate; settings: read-out: Inhibitory Activity (IC50, nM) DAO
T4 construct: purchased R&D systems
T4 sequence (P19801 20-751): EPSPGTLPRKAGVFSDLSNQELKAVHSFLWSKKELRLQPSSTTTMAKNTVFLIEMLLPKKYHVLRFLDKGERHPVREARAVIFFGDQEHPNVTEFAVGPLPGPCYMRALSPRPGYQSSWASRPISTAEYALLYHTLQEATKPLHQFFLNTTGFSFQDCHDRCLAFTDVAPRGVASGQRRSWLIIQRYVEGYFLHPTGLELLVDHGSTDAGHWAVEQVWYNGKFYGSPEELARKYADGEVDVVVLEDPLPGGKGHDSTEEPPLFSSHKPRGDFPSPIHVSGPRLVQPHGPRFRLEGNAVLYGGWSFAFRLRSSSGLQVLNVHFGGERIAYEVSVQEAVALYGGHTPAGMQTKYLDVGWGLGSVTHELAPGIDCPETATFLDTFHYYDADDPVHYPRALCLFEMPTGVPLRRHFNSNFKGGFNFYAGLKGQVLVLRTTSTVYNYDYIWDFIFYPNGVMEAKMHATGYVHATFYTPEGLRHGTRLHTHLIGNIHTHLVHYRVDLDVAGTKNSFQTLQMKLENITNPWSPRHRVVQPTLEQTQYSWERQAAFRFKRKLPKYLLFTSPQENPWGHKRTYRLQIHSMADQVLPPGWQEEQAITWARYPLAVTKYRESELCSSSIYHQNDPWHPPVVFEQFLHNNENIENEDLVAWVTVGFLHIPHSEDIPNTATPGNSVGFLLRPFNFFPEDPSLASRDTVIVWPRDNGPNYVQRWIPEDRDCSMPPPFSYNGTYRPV
In short: as §1

Work on `NC/C(=C\F)Cn1nc2cc(-c3ccc4c(c3)OCO4)ccn2c1=O` [Example 36, 2-[(2E)-2-(aminomethyl)-3-fluoroprop-2-en-1-yl]-7-(1,3-benzodioxol-5-yl)[1,2,4]triazolo[4,3-a]pyridin-3(2H)-one hydrochloride] yielded an IC50 [1] of 66000 nM, an IC50 [2] of 3.8 nM and an IC50 (recombinant human VAP-1) of 0.3 nM. It also gave an IC50 [3] of 20 nM.
Work on `NC/C(=C\F)Cn1nc2cc(-c3ccnc4[nH]ccc34)ccn2c1=O` [Example 40, 2-[(2E)-2-(aminomethyl)-3-fluoroprop-2-en-1-yl]-7-(1H-pyrrolo[2,3-b]pyridin-4-yl)[1,2,4]triazolo[4,3-a]pyridin-3(2H)-one hydrochloride] yielded an IC50 [1] of over 100000 nM, an IC50 [2] of 760 nM and an IC50 (recombinant human VAP-1) of 0.3 nM. For the same molecule, the IC50 [3] was 9.4 nM.
In the case of `NCC(Cn1nc2cc(C#Cc3cnc4c(c3)OCCN4)ccn2c1=O)=C(F)F` [Example 61, 2-[2-(aminomethyl)-3,3-difluoro-allyl]-7-[2-(3,4-dihydro-2H-pyrido[3,2-b][1,4]oxazin-7-yl)ethynyl]-[1,2,4]triazolo[4,3-a]pyridin-3-one ditrifluoroacetate], the IC50 [1] is reported as over 100000 nM, the IC50 [2] is reported as 37000 nM and the IC50 (recombinant human VAP-1) is reported as 0.6 nM. It also gave an IC50 [3] of 220 nM.
`NCC(Cn1nc2cccc(Br)n2c1=O)=C(F)F` [Example 45, 2-[2-(aminomethyl)-3,3-difluoro-allyl]-5-bromo-[1,2,4]triazolo[4,3-a]pyridin-3-one trifluoroacetate] was tested, and the IC50 [1] was over 100000 nM, the IC50 [2] was over 100000 nM and the IC50 (recombinant human VAP-1) was 24 nM. The IC50 [3] was 11000 nM.
In the case of `NC/C(=C\F)Cn1nc2cc(-c3c[nH]c4ncccc34)ccn2c1=O` [Example 35, 2-[(2E)-2-(aminomethyl)-3-fluoroprop-2-en-1-yl]-7-(1H-pyrrolo[2,3-b]pyridin-3-yl)[1,2,4]triazolo[4,3-a]pyridin-3(2H)-one hydrochloride], the IC50 [1] is reported as over 100000 nM, the IC50 [2] is reported as 24 nM and the IC50 (recombinant human VAP-1) is reported as 0.2 nM. The IC50 [3] was 0.5 nM.
`COc1ccc(-c2ccn3c(=O)n(C/C(=C/F)CN)nc3c2)cn1` [Example 31, 2-[(2E)-2-(aminomethyl)-3-fluoroprop-2-en-1-yl]-7-(6-methoxypyridin-3-yl)[1,2,4]triazolo[4,3-a]pyridin-3(2H)-one hydrochloride] gave an IC50 [1] of over 100000 nM, an IC50 [2] of 61 nM and an IC50 (recombinant human VAP-1) of 0.3 nM. It also gave an IC50 [3] of 5 nM.
In the case of `NC/C(=C\F)Cn1nc2ccc(-c3cccc(-c4nc[nH]n4)c3)cn2c1=O` [Example 6, 2-[(2E)-2-(aminomethyl)-3-fluoroprop-2-en-1-yl]-6-[3-(1H-1,2,4-triazol-3-yl)phenyl][1,2,4]triazolo[4,3-a]pyridin-3(2H)-one], the IC50 [1] is reported as over 100000 nM, the IC50 [2] is reported as 73 nM and the IC50 (recombinant human VAP-1) is reported as 2.1 nM. It also gave an IC50 [3] of under 100 nM.
For `CN1CCOc2cc(-c3ccn4c(=O)n(C/C(=C/F)CN)nc4c3)ccc21` [Example 44, 2-[(2E)-2-(aminomethyl)-3-fluoroprop-2-en-1-yl]-7-(4-methyl-3,4-dihydro-2H-1,4-benzoxazin-7-yl)[1,2,4]triazolo[4,3-a]pyridin-3(2H)-one hydrochloride], the IC50 [1] was over 100000 nM, the IC50 [2] was under 10 nM and the IC50 (recombinant human VAP-1) was 1 nM. For the same molecule, the IC50 [3] was 400 nM.
Work on `NCC(Cn1nc2ccc(Br)cn2c1=O)=C(F)F` [Example 46, 2-[2-(aminomethyl)-3,3-difluoro-allyl]-6-bromo-[1,2,4]triazolo[4,3-a]pyridin-3-one trifluoroacetate] yielded an IC50 [1] of over 100000 nM, an IC50 [2] of over 100000 nM and an IC50 (recombinant human VAP-1) of 36 nM. The IC50 [3] was 26000 nM.
Work on `NCC(Cn1nc2cc(-c3ccc4c(c3)OCO4)ccn2c1=O)=C(F)F` [Example 52, 2-[2-(aminomethyl)-3,3-difluoro-allyl]-7-(1,3-benzodioxol-5-yl)-[1,2,4]triazolo[4,3-a]pyridin-3-one trifluoroacetate] yielded an IC50 [1] of over 100000 nM, an IC50 [2] of 37 nM and an IC50 (recombinant human VAP-1) of 0.3 nM. For the same molecule, the IC50 [3] was 160 nM.
